Assays:
[1] = target: sigma-1 site compared to the sigma-2 site (Homo sapiens, UniProt Q99720); conditions: (+) isomers of benzomorphan opiates; cited from earlier work
[2] = system: rat primary neuronal cultures; conditions: cited from earlier work
[3] = system: spontaneously hypertensive rats exposed to permanent middle artery occlusion (MCAO); test: Rotating pole test after MCA occlusion (stroke model); type: in vivo, rat; conditions: 0.03-10 mg/kg s.c. or p.o. from two days after MCAO for 2-8 weeks; present-tense example
Text: (§1) Male 3 months old SHR (spontaneous hypertensive) rats are used for induction of stroke by MCA occlusion. This is the preferred strain since most stroke patients are hypertensive. The animals are anesthetized with Methohexital and a small craniectomy is made above the zygmotic arch to expose the middle cerebral artery, which is occluded with a 10-0 monofilament nylon thread distal to the origin of the striatal branches. The rats are not intubated and no catheters are inserted. Following MCA occlusion a large and reproducible infarct is obtained, leading to a robust sensorimotor deficit. The animals are kept on a 6 hr light/18 h dark cycle with free access to food and water. At two days after the MCAO the rats are treated with the compound I, II, III, IV, V, VI, VII, VIII, or IX (0.03-10 mg/kg) s.c. or p.o. and a control group is given saline for 2-8 weeks. At 2, 4, 6 and 8 weeks animals are tested in the rotating pole or cylinder test.
Cylinder Test for Asymmetric Use of Forelimb Use in Spontaneous Rearing
Thirty five spontaneously hypertensive rats were exposed to permanent middle artery occlusion (MCAO), then divided into three treatment groups. Starting at two days after occlusion and continuing daily until 28 days after occlusion, AGY-94806 was administered s.c. in doses of 0.3 mg/kg (12 rats) or 1.0 mg/kg (12 rats). In a control group (11 rats), vehicle only was administered. At the start of treatment, and at several time points during the test, the rats were assessed for their performance in the rotating pole model. This model is described in Example 1. It requires the rats to cross a horizontally suspended rotating pole having a length of 1 m. This task measures the sensory-motor performance of the animals. The animals' behaviour was recorded using a video camera and later analyzed and scored by a trained technician. The scoring ranges from 0 to 6, with 0 being very poor performance and 6 reflecting the performance of a healthy animal (without MCAO).

[4] = system: spontaneously hypertensive rats exposed to permanent middle artery occlusion (MCAO); test: Cylinder test for asymmetric forelimb use after MCA occlusion; type: in vivo, rat; conditions: for performance in cylinder test versus control animals: 0.03-10 mg/kg s.c. or p.o. from two days after MCAO for 2-8 weeks, present-tense example
Text: as §1
The cylinder test (modified from Schallert and Tillerson (Innovative models of CNS disease: from molecule to therapy. Clifton, N.J., Humana, 1999) is used to quantify the forelimb use for rearing on the cylinder wall. The rats are monitored as they move freely in a 20-cm-wide clear glass cylinder. Contacts made by each forepaw with the cylinder wall while rearing are scored by a blinded observer. A total of 20 contacts are recorded for each animal, and the number of impaired (left), both, and non-impaired forelimb contacts as percentage of total contacts is calculated. Baseline for rats is achieved by measuring the contacts made by each forepaw before MCAO.
Forty three spontaneously hypertensive rats were exposed to permanent middle artery occlusion (MCAO), then divided into three treatment groups. Starting at two days after occlusion and continuing daily for 14 days, AGY-94806 was administered p.o. in doses of 0.1 mg/kg (14 rats) or 0.3 mg/kg (14 rats). In a control group (15 rats), vehicle only was administered. At the start of treatment, and at several time points during the test, the rats were assessed for their performance in the cylinder test. This test is described in Example 1. It measures the sensory-motor performance of the animals. The performance of the rats in the test was assessed one day before permanent MCAO, then at 14 days, 28 days and 59 days after permanent MCAO. The rats were monitored as they moved freely in a 20 cm-wide clear glass cylinder. Contacts made by each forepaw with the cylinder wall while rearing were scored by a blinded observer. A total of 20 contacts were recorded for each animal, and the number of impaired (left), both, and non-impaired forelimb contacts as a percentage of total contacts was calculated.

[5] = system: NMDA-induced toxicity and seizures; conditions: in vivo models; cited from earlier work
gerbils = conditions: cited from earlier work

Chain of sigma-1 site compared to the sigma-2 site (Q99720 whole entry): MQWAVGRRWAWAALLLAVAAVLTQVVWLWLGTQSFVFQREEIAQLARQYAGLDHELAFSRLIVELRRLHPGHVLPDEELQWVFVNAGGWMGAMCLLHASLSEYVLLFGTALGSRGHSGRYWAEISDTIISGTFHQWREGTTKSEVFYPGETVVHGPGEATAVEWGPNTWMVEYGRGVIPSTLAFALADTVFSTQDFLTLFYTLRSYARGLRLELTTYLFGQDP

| SMILES | performance in rotating pole test versus control animals [3] | performance in cylinder test versus control animals [4] | further results |
| --- | --- | --- | --- |
| CC(C)=CCN1CCC2(C)c3cc(O)ccc3CC1C2C (single isomer, unassigned; (+)) [(+)pentazocine] |  |  | affinity for the sigma-1 site compared to the sigma-2 site [1]: nearly two orders of magnitude higher affinity |
| COc1ccc(CCN2CCN(CCCc3ccccc3)CC2)cc1OC [AGY-94806, 1-(3,4-dimethoxyphenethyl)-4-(3-phenylpropyl) piperazine] | perform better | perform better | hypoxia/hypoglycemia-induced neurotoxicity [2]: significantly suppress; asymmetry of paw usage ([4]; 0.3 mg/kg p.o., all time points measured): reduced to pre-MCAO levels |
| OC(CCCN1CCN(c2ncc(F)cn2)CC1)c1ccc(F)cc1 (stereo not shown) [BMY-14802] |  |  | protective effects against NMDA-induced toxicity and seizures [5]: in vivo protective effects |
| O=C(OCCN1CCOCC1)C1(c2ccccc2)CCCCC1 [III] | perform better | perform better |  |
| O=C(NC1CCN(Cc2ccccc2)CC1)c1ccc(I)cc1 [II] | perform better | perform better |  |
| COc1ccc(CN2CCN(Cc3ccccc3)CC2)c(O)c1OC [IX] | perform better | perform better |  |
| COCCCC/C(=N\OCCN)c1ccc(C(F)(F)F)cc1 [I] | perform better | perform better |  |
| CN(CCc1ccc(Cl)c(Cl)c1)C1CCCCC1N1CCCC1 (stereo not shown) [VIII] | perform better | perform better |  |
| COc1cccc2c1CCC(=O)N2CCCN1CCN(c2cccc(Cl)c2)CC1 [VII] | perform better | perform better |  |
| CCC(C/C=C/c1ccccc1)(c1ccccc1)N(C)CC1CC1 (stereo not shown) [VI] | perform better | perform better |  |
| Fc1ccc(-n2cc(CCCCN3CCC4(CC3)OCc3ccccc34)c3ccccc32)cc1 [V] | perform better | perform better |  |
| CCN(CC)CCOC(=O)C1(c2ccccc2)CCCC1 [caramiphen] |  |  | protective effects against NMDA-induced toxicity and seizures [5]: in vivo protective effects |
| O=C(CCCN1CCC(O)(c2ccc(Cl)cc2)CC1)c1ccc(F)cc1 [haloperidol] |  |  | protective effects against NMDA-induced toxicity and seizures [5]: in vivo protective effects |
| OCCN1CCN(CCCN2c3ccccc3C=Cc3ccccc32)CC1 [opipramol] |  |  | protection against ischemia (gerbils): protect against ischemia |

Reference: patent publication US7829562B2, “Sigma ligands for neuronal regeneration and functional recovery” (M's Science Corporation, priority 2003, dated 2010)
